One experiment concerns human CD3 T cells. The following applies: T cells incubated with 0.01 μM to 10 mM AMD3100 before addition to the chamber; harvest after 3 h. The protocol: For quantitative transmigration assays, purified human CD3′ T cells (approximately 2×10^4 cells) are added to the upper chamber of a Transwell®, insert in each well, to a total volume of 150 μl of Iscove's modified medium.
To determine the anti-fugetactic concentration of AMD3100, the T cells are incubated with 0.01 μM to 10 mM AMD3100 prior to addition to the chamber.
Cells are harvested from the lower chamber after 3 h, and cell counts are performed using a hemocytometer.

The subject of the next experiment is human CD3+ T cells. The protocol:
Freshly prepared and purified human CD3^+ T cells were prepared from healthy donor peripheral blood. 20,000 T cells were loaded into the upper chamber of the Transwell in control, chemotactic or fugetactic settings with AMD3100 at concentrations between 0.1 μM and 10 μM. Migrated cells were counted in the lower chamber and migration quantitated as previously described. Vianello et al. The Journal of Immunology, 2006, 176: 2902-2914; Righi et al., Cancer Res.; 71(16): 5522-34, each of which is incorporated herein in its entirety.
All wells were run in triplicate.

1 compound from US11890348B2, “Localized delivery of anti-fugetactic agent for treatment of cancer” (THE GENERAL HOSPITAL CORPORATION, priority 2015, dated 2024) can be followed below.

`c1cc(CN2CCCNCCNCCCNCC2)ccc1CN1CCCNCCNCCCNCC1` [AMD3100]: the “effect on T cell migration (anti-fugetactic at lower, fugetactic at higher concentrations)” value with human CD3 T cells was “bimodal effect”. For the same compound, the “effect on human T cell chemotaxis” value with human CD3+ T cells (FIG. 1, AMD3100 0.1 μM to 10 μM) is on record as “bimodal effect”. For the same compound, the “effect on human T cell fugetaxis” value in the experiment on human CD3+ T cells (FIG. 2, AMD3100 0.1 μM to 10 μM, antifugetactic properties observed in a specific range) was “bimodal effect”. Moreover, in the experiment on human CD3+ T cells (chemotactic setting, AMD3100 at 1 μM, CI of 1.0 is the control, FIG. 1, triplicate wells), the “chemotactic index (CI), chemotactic response” value was 2.3. In the experiment on human CD3+ T cells (fugetactic setting, AMD3100 at 0.1 μM, CI of 1.0 is the control, FIG. 2, triplicate wells), the “chemotactic index (CI), fugetactic response” value came to 1.6.
